Laboratory results published in patent publication US20220144812A1, “QUINOLINE DERIVATIVES AND THEIR USE FOR THE TREATMENT OF CANCER” (Epizyme, Inc., priority 2019, published 2022).
Like-named read-outs stand apart in the source and are kept apart here.

Experiments:
CREBBP (1084-1701) = target: T1, CREBBP (1084-1701) (Homo sapiens, UniProt Q92793); assay: Biochemical assay for CREBBP (1084-1701), SAMDI; settings: SAMDI, read-out: CREBBP Biochemistry IC50
T1 construct: measured in the following biochemical assay using CREBBP (1084-1701); purchased
Outline: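 Acetyltransferase activity measured by SAMDI mass spectrometry after capture on biochip. Enzyme sat with compound 30 min at RT before acetyl-CoA and biotinylated H3 11-25 (K14R, K23R) peptide were added for 30 min at RT. Formic acid quench, bicarbonate neutralisation; IC50 values reported.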

[1] = system: H3K18Ac in HB-CLS-2 cells; assay: H3K18AC in-cell western (ICW) assay; type: cell-based; settings: H3K18Ac in-cell western, read-out: CREBBP ICW IC50
Outline: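 In-cell western: after methanol fixation, blocking, overnight 4° C anti-H3K18Ac staining, then 800CW secondary plus DRAQ5 for DNA content, integrated intensities were scanned at 800 and 700 nm. Before this, compound exposure lasted 2 hr at 37° C in HB-CLS-2 cells plated 16–24 hours earlier. Values expressed as IC50 (μM).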

647V cells = assay: High throughput proliferation (HTP) assay; type: cell-based; settings: high throughput proliferation, read-out: CREBBP HTP IC50
Outline: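 Proliferation IC50 (micromolar) derived from a 7-day CellTiter-Glo viable-cell readout in 647V cells exposed, in triplicate, to rising compound concentrations; cells grown in DMEM plus 15% heat-inactivated FBS at 37° C under 5% CO2.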

EP300 (P300(1048-1664)) = target: T2, EP300 (P300(1048-1664)) (Homo sapiens, UniProt Q09472); assay: Biochemical assay for EP300, SAMDI; settings: EP300, SAMDI; read-out: EP300 Biochemistry IC50
T2 construct: P300(1048-1664)
T2 sequence (Q09472 1048-1664): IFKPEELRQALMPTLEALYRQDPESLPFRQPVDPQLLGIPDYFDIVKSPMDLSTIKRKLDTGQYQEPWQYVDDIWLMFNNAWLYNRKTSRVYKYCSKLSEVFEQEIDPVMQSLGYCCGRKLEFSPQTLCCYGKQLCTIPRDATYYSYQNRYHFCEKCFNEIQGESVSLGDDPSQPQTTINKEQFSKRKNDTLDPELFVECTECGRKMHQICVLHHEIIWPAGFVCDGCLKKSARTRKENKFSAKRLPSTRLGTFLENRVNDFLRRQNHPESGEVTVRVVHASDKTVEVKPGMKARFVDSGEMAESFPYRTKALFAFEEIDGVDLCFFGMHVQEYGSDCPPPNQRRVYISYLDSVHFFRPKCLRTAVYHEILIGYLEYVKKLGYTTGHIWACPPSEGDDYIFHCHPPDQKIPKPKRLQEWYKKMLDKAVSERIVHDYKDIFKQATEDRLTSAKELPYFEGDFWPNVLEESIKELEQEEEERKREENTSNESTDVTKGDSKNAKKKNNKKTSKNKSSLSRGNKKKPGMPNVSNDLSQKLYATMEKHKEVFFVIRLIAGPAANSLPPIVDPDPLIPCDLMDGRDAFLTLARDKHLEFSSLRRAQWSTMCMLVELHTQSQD
Description: The following example describes materials and methods relating to a biochemical assay for EP300. IC50 values (micromolar (μM)) are summarized in Table 1, Table 2, and Table 3 under the column labeled: “EP300 Biochemistry IC50 (micromolar).”

[2] = Homo sapiens, 647-V, 647V cells

T1 sequence (Q92793 1084-1701): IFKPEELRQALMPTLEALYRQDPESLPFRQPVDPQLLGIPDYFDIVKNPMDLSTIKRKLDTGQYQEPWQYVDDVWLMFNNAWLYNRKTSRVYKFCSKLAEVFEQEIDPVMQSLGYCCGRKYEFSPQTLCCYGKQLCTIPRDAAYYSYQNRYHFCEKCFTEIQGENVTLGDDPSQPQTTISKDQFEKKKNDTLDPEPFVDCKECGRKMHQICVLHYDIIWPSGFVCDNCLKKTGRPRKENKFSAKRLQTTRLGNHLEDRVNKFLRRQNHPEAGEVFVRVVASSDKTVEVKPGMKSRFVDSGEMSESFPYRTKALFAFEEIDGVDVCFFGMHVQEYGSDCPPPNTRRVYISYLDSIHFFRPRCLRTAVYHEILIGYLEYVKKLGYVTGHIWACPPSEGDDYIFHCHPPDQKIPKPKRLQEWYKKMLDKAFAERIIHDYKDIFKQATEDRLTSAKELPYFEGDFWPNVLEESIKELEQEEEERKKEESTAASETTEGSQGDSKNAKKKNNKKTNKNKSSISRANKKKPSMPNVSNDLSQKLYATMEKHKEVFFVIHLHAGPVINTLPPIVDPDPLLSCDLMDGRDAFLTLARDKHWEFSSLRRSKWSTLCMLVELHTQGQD

| SMILES | IC50 (CREBBP (1084-1701)) [µM] | IC50 [1] [µM] | IC50 (647V cells; Homo sapiens, 647-V) [µM] | IC50 (EP300 (P300(1048-1664))) [µM] | IC50 ([1]; HB-CLS-2 cells) [µM] | IC50 (647V cells; [2]) [µM] | IC50 (647V cells; 647V cells) [µM] |
| --- | --- | --- | --- | --- | --- | --- | --- |
| CCn1ncc(CN(C)C(=O)c2nc(-c3cc(C(=O)NCCN4CCCC4)n(Cc4ccc(OC)cc4)n3)nc3ccc(Cl)cc23)c1C [Compound 177] | 54 | 16 | 3.4 | 44 |  |  |  |
| CCn1ncc(CN(C)C(=O)c2nc(-n3cc4c(n3)CNCC4)nc3ccc(Cl)cc23)c1C [Compound 179] | 115 | 18 | 20 | 55 |  |  |  |
| CCn1ncc(CN(C)C(=O)c2nc(-n3cc(C)cn3)nc3ccc(Cl)cc23)c1C [Compound 182] | 70 | 19 | 7.8 | 19 |  |  |  |
| CCn1ncc(CN(C)C(=O)c2cc(-c3cn(C)c(OC)n3)nc3cc(Cl)ccc23)c1C [Compound 185] | 98 | 20 | 20 | 56 |  |  |  |
| CCn1ncc(CN(C)C(=O)c2cc(-n3ncc4c3CNCC4)nc3ccc(Cl)cc23)c1C [Compound 186] | 114 | 20 | 7.8 | 64 |  |  |  |
| CCn1ncc(CN(C)C(=O)c2nc(-c3cnc(CO)n3C)nc3ccc(Cl)cc23)c1C [Compound 208] | 50 |  |  | 36 | 20 | 20 |  |
| CCn1ncc(CN(C)C(=O)c2nc(N3CCn4cc(C)nc4C3)nc3ccc(Cl)cc23)c1C [Compound 220] | 141 |  |  | 100 | 20 | 20 |  |
| CCn1ncc(CN(C)C(=O)c2cc(-c3cn[nH]c3N)nc3ccc(Cl)cc23)c1C [Compound 227] | 50 |  |  | 41 | 20 | 20 |  |
| CCn1ncc(CN(C)C(=O)c2nc(-c3cc(CNC)n(C)n3)nc3ccc(Cl)cc23)c1C [Compound 380] | 25 |  |  | 14 | 20 | 20 |  |
| CCn1ncc(CN(C)C(=O)c2nc(-c3cc(C)cc(NC4CCNC4)c3)cc3ccc(Cl)cc23)c1C (stereo not drawn) [Compound 383] | 0.017 |  |  | 0.0051 | 0.19 |  | 0.063 |
| CCn1ncc(CN(C)C(=O)c2nc(-c3cc(NC(=O)CNC)cc(OC)c3)nc3ccc(Cl)cc23)c1C [Compound 384] | 0.033 |  |  | 0.012 | 0.13 | 0.1 |  |
| CCn1ncc(CN(C)C(=O)c2cc(-c3ccc4c[nH]nc4n3)nc3ccc(Cl)cc23)c1C [Compound 386] | 0.015 |  |  | 0.01 | 0.2 | 0.31 |  |
| CCn1ncc(CN(C)C(=O)c2nc(-c3ccc(NC4CCOCC4)c(C)c3)nc3ccc(Cl)cc23)c1C [Compound 387] | 0.016 |  |  | 0.0075 | 0.12 | 0.088 |  |
| CCn1ncc(CN(C)C(=O)c2cc(-c3ccc(NCCNC)c(C)n3)nc3ccc(Cl)cc23)c1C [Compound 388] | 0.034 |  |  | 0.011 | 0.23 | 0.066 |  |
| CCn1ncc(CN(C)C(=O)c2cc(-c3ccc(NC4CNC4)c(C)n3)nc3ccc(Cl)cc23)c1C [Compound 389] | 0.017 |  |  | 0.0074 | 0.082 | 0.073 |  |
| CCn1ncc(CN(C)C(=O)c2nc(-c3cc(OC)c4cn[nH]c4c3)nc3ccc(Cl)cc23)c1C [Compound 390] | 0.033 |  |  | 0.14 | 0.65 | 0.68 |  |
| CCn1ncc(CN(C)C(=O)c2nc(-c3cc(C(=O)NC)nn3C)nc3ccc(Cl)cc23)c1C [Compound 391] | 8.5 |  |  | 4.1 | 3.2 | 3.1 |  |
| CCn1ncc(CN(C)C(=O)c2nc(-c3cc(Cl)cc(C(=O)NC)c3)nc3ccc(Cl)cc23)c1C [Compound 392] | 50 |  |  | 50 | 20 | 20 |  |
